Data on three compounds can be found in PMC3857149, “Identification of Three Antiviral Inhibitors against Japanese Encephalitis Virus from Library of Pharmacologically Active Compounds 1280” (PLoS ONE, 2013).

Structures are written as SMILES.

Series [1] is described as follows: Cytotoxicity of compounds (Celltiter-Glo cell viability). It is filed as cell-based. The settings on record: hamster; BHK-21 cells, 120 h incubation; read-out: CC50 (50% cytotoxicity concentration). On the procedure: (§1) Cell viability was evaluated by Celltiter-Glo Luminescent Cell Viability Assay reagent (Promega, Madison, WI, USA) following the manufacturer's protocol. An equal volume of Celltiter-Glo reagents was added to the cells in 96-well white plates (Corning, Tewksbury, MA, USA) and mixed for 2 min on an orbital shaker and incubated for a further 10 min at room temperature. The luminescence of each well was measured by a 1450 MicroBeta TriLux (Perkin Elmer, Waltham, MA, USA). Percentage of cell viability was calculated as follows: Percentage of cell viability = 100× (luminescence of experimental group/luminescence of control group).
BHK-21 cells were seeded in 96-well white plates at 10,000 cells per well. After 12 h incubation for cell attachment, different concentrations of compounds were added to the cells. Cell viability was tested as described above after 120 h incubation. The 50% cytotoxicity concentration (CC50) was calculated by nonlinear regression analysis.

For series [2] the following is noted: cited from earlier work.
For series [3], the system named is JEV. Kind of series: Indirect immunofluorescence assay (IFA, anti-NS5) in infected BHK-21 cells. It is filed as cell-based, Japanese encephalitis virus. The settings on record: MOI 0.01, 48 h post-infection; for JEV-negative cells: 5 µM compound; for JEV replication / JEV-positive cells (IFA): 20 µM compound. As to the method: BHK-21 cells were seeded in 12-well plates and inoculated with JEV at MOI 0.01 after 12 h incubation. The compounds were added to cells at concentrations of 5 or 20 µM. After incubation for a further 48 h, virus replication in the cells was evaluated by IFA. The cells were fixed in formaldehyde for 5 min and were incubated with anti-NS5 Mab (1∶500) and then FITC-conjugated goat anti-mouse antibody (Boster) for 30 min respectively. Finally, the cells were stained with DAPI (Sigma-Aldrich) and imaged by a fluorescence microscope (Olympus IX70; Olympus, Tokyo, Japan).

In series [4] the test system is JEV. Nature of the series: Plaque reduction assay. It is filed as cell-based, Japanese encephalitis virus. As to the method: BHK-21 cells were plated in 96-well plates at a density of 10,000 cells per well and grown for 12 h for cell attachment. The cells were infected with JEV at MOI 0.01 in the presence of different concentrations (20, 15, 10, and 5 µM) of compounds. Each concentration was assayed in triplicate. Forty-eight hours post-infection, the viruses in each group were harvested by freezing/thawing three times and mixed in a tube. Then, 50 µL virus suspension was inoculated into BHK-21 cells in 12-well plates for the plaque assay, as previously described.

In series [5] the test system is JEV (P3 strain). Nature of the series: CPE-based EC50 assay, JEV-infected BHK-21 cells. The settings on record: for EC50: Japanese encephalitis virus, BHK-21, 120 h; for selectivity index: from CC50 and EC50 in BHK-21 cells. The class given is cell-based, Japanese encephalitis virus. On the procedure:
as §1
BHK-21 cells were seeded onto 96-well plates at 10,000 cells per well. After 12 h incubation, the culture supernatant was replaced with maintenance medium. One microliter of each compound was added to 99 µL maintenance medium in the first well, followed by twofold serial dilutions for two wells. After full mixing in the third well, 50 µL medium was discarded. Then, 50 µL maintenance medium containing 0.02 MOI JEV was added to each well. The plates were subjected to 30 s horizontal shaking to achieve thorough mixing. Three wells of mock-infected cells as well as three wells of JEV-infected cells containing 1% DMSO were set on each plate as controls. After 120 h incubation, the percentage of CPE inhibition was calculated as previously described: Percentage of inhibition = (luminescence of experimental group – average luminescence of virus control) / (average luminescence of cell control – average luminescence of virus control) ×100.
BHK-21 cells were seeded in 96-well white plates at 10,000 cells per well. Twelve hours later, the growth medium was replaced with maintenance medium containing 0.01 MOI JEV as well as different concentrations of compounds. Cell incubation was continued for 120 h, and the percentage of inhibition was measured as described above. The EC50 values were calculated by nonlinear regression analysis.

For series [6] the following is noted: cited from earlier work. This is another data set of the same source.
In series [7] the test system is JEV. Nature of the series: Western blotting of JEV envelope (E) protein expression in infected BHK-21 cells. The class given is cell-based, Japanese encephalitis virus. The settings on record: MOI 0.01, 48 h, normalized to GAPDH. On the procedure: BHK-21 cells in 12-well plates were infected with JEV at MOI 0.01. The compounds were then added to cells at final concentrations of 10 and 20 µM. After incubation for 48 h, expression of JEV envelope (E) protein was detected by western blotting. The cells were collected after trypsin digestion and washed in PBS. The cell suspension was mixed with an equal volume of 2×SDS sample buffer. The proteins were electrophoresed in 12% SDS-PAGE and transferred to a nitrocellulose filter membrane (Millipore, Darmstadt, Germany). Western blotting was performed with JEV E protein-specific monoclonal antibody (Mab; 1∶500, constructed in our laboratory) or GAPDH-specific Mab (1∶1000; Proteintech, Chicago, IL, USA) as the primary antibodies, followed by addition of horseradish-peroxidase-conjugated goat anti-mouse IgG (Boster, Wuhan, China) as the secondary antibody. Finally, the protein blots were detected with SuperSignal West Pico Chemiluminescent Substrate (Thermo Scientific, Rockford, IL, USA) and imaged by a MF-ChemiBIS 3.2 (DNR Bio-Imaging Systems, Mahale Hahamisha, Israel). The expression of E and GAPDH was quantified by gray-value analysis using software ImageJ. The expression of E protein was normalized by the expression of GAPDH and the changes of E expression were calculated by comparing to the non-compound treated group.

With `CCCCCCN(CCCCCC)C(=O)Cc1c(-c2ccc(F)cc2)[nH]c2ccccc12` [FGIN-1-27, N,N-dihexyl-2-(4-fluorophenyl)indole-3-acetamide], the CC50 at 120 h in series [1] worked out at 124 µM. In series [2], the “ability to enter the brain” value is on record as “had the ability to enter the brain”. Also, in series [3], the JEV-negative cells entry was “about 80%” and the “JEV replication / JEV-positive cells (IFA)” value is reported as “few cells were JEV-positive”. In series [4] (10 µM compound, 48 h, MOI 0.01), this compound showed a number of plaques of under 20. The virus titer in series [4] (10 µM compound, 48 h, MOI 0.01, untreated 2.7×10^6 PFU/mL) is under 400 PFU/mL. Further, in series [5], the EC50 came out at 3.21 µM and the selectivity index was 38.79.
Regarding `COCCOC(=O)C1=C(C)NC(C)=C(C(=O)OC/C=C/c2ccccc2)C1c1cccc([N+](=O)[O-])c1` (centres unmarked) [cilnidipine], the CC50 at 120 h in series [1] was over 200 µM. In series [6], the MLD50 was over 5000 mg/kg. The “E expression decrease (gray-value analysis)” value (“E expression decrease” below) in series [7] (10 µM compound) was about 56%. For the same compound, in series [7] (20 µM compound), the “E expression decrease” value is about 75%. For the same compound, in series [3], the JEV-negative cells is reported as about 60% and the “JEV replication / JEV-positive cells (IFA)” value was “Absolute inhibition of JEV replication”. The “replication of JEV” value in series [4] (20 or 15 µM compound) was “almost completely inhibited”. Besides, in series [5], the EC50 stood at 6.52 µM and the selectivity index stood at 30.67.
Regarding `O=C(Nc1ccc([N+](=O)[O-])cc1Cl)c1cc(Cl)ccc1O` [niclosamide], the CC50 at 120 h in series [1] came to 43.3 µM. Further, the “E expression decrease” value in series [7] (10 µM compound) is reported as “about 85%”. In series [3], the JEV-negative cells was about 30% and the “JEV replication / JEV-positive cells (IFA)” value is on record as “few cells were JEV-positive”. Besides, in series [5], a half-maximal response (EC50) required 5.8 µM and the selectivity index is given as 7.49.
